System: Loxosceles reclusa envenomation (spider bite dermal lesions)
Experiment: Treatment of Loxosceles reclusa envenomation with imiquimod 5% cream (consecutive clinical cases)
Assay type: in vivo, human
Description: A consecutive series of 7 bites on 5 patients were treated with imiquimod 5% cream (available under the tradename ALDARA from 3M Pharmaceuticals, St. Paul, Minn., USA) applied by the clinic staff, three times per week (typically Monday, Wednesday and Friday) for two weeks. Sufficient cream was used to cover the area of erythema, rubbing the cream gently until it “vanished” as per labeled instructions. In addition, a single intramuscular dose of ceftriaxone 1 gm was given together with oral dicloxicillin, 500 mg bid for 10 days. Patients were re-examined by a physician at 7, 14 and 28 days following initiation of therapy.

## CC(C)Cn1cnc2c(N)nc3ccccc3c21 [imiquimod, 1-(2-methylpropyl)-1H-imidazo[4,5-c]quinolin-4-amine]
7 bites in 5 patients
  improvement in induration and erythema by day 7: Marked improvement
  resolution of induration and erythema by day 14: full resolution in all but one case
7 consecutive cases, versus historical rate 7/12 (0.583): binomial p=0.002, Chi-square p=0.01
  cases with necrosis: 0 out of 7
Day 28 follow-up visit
  residual scarring or pigmentation changes: No residual scarring or pigmentation changes
Imiquimod treated cases, 7 bites in 5 patients
  development of necrosis: Necrosis did not develop in any
Patient five, right calf bite
  erythema, 14 Day Follow-up: present
  ulcer status, 14 Day Follow-up: Ulcer healed
Patient five, right calf bite, 1.2 cm erythema at presentation
  erythema, 7 Day Follow-up: No erythema
Patient five, right calf bite, 1.8 cm central core at presentation
  ulcer, 7 Day Follow-up: 0.75 cm ulcer
Patient five, right calf bite, erythema present at day 14
  erythema resolved by (day): d28)
Patient five, right calf bite, painful at presentation
  pain, 7 Day Follow-up: Decreased pain
Patient five, erythema cleared at the day 7 visit
  reappearance of erythema, presumed to be secondary to imiquimod: developed again by day 14
Patient four, right calf bite
  lesion status, 14 Day Follow-up: Completely
Patient four, right calf bite, 1.5 cm induration at presentation, cream three times per week for two weeks
  induration, 7 Day Follow-up: 0.5 cm
Patient four, right calf bite, 9 cm erythema at presentation
  erythema, 7 Day Follow-up: No erythema
Patient four, right calf bite, painful at presentation
  pain or tenderness, 7 Day Follow-up: No pain or
Patient one, right calf bite
  lesion status, 14 Day Follow-up: Completely
Patient one, right calf bite, 1.3 cm induration at presentation
  firm induration, 7 Day Follow-up: 1.25 cm firm
Patient one, right calf bite, 10 cm erythema at presentation
  induration (second entry of the cell), 7 Day Follow-up: 5 cm
Patient one, right calf bite, very painful at presentation
  tenderness, 7 Day Follow-up: Non-tender
Patient three, first bite
  time from bite to resolution: 9 days
Patient three, left buttock bite, 1.0 cm induration, erythema, painful at presentation
  lesion status, 7 Day Follow-up: Completely
Patient three, right thigh bite
  lesion status, 14 Day Follow-up: Completely
Patient three, right thigh bite, 1.5 cm induration at presentation
  central core, 7 Day Follow-up: 2.5 cm
Patient three, right thigh bite, 7.5 × 11 cm erythema at presentation
  erythema, 7 Day Follow-up: No erythema
Patient three, right thigh bite, tender at presentation
  pain or tenderness, 7 Day Follow-up: No pain or
Patient two, left thigh bite
  lesion status, 14 Day Follow-up: Completely
Patient two, left thigh bite, 1.0 cm central core at presentation
  central core, 7 Day Follow-up: 0.5 cm
Patient two, left thigh bite, 6.0 cm erythema at presentation
  erythema, 7 Day Follow-up: 2.0 cm
Patient two, right breast bite
  lesion status, 14 Day Follow-up: Completely
Patient two, right breast bite, 1.2 cm central core at presentation
  central core, 7 Day Follow-up: 1.0 cm
Patient two, right breast bite, 3.0 cm erythema at presentation
  erythema, 7 Day Follow-up: No erythema
Reported by all patients, 7 bites in 5 patients
  time to pain relief following the first dose: 1 to 2 days
